Laboratory results from patent US20070264679A1, “Method for analyzing the activity of lipoxygenase using a water-soluble substrate” (Chungnam National University Industry Collaboration …, priority 2006, published 2007).
Blank lines part the entries; values can stand above or below the molecule they belong to.

Legend:
[1] = target: T1, soybean LOX-1 (Glycine max, UniProt P08170); experiment: Kinetics of oxygenation of arachidonic acid or arachidonoyl-lysophospholipids by soybean LOX-1; type: biochemical; conditions: soybean LOX-1 2.5 units/ml; for Vm: 50 mM borax buffer pH 9.0, unit = one nanomole conjugated diene per min
T1 construct: purchased Sigma-Aldrich Corp (St. Louis, Mo., USA) lipoxidase Type I-B
T1 sequence (P08170 1-839): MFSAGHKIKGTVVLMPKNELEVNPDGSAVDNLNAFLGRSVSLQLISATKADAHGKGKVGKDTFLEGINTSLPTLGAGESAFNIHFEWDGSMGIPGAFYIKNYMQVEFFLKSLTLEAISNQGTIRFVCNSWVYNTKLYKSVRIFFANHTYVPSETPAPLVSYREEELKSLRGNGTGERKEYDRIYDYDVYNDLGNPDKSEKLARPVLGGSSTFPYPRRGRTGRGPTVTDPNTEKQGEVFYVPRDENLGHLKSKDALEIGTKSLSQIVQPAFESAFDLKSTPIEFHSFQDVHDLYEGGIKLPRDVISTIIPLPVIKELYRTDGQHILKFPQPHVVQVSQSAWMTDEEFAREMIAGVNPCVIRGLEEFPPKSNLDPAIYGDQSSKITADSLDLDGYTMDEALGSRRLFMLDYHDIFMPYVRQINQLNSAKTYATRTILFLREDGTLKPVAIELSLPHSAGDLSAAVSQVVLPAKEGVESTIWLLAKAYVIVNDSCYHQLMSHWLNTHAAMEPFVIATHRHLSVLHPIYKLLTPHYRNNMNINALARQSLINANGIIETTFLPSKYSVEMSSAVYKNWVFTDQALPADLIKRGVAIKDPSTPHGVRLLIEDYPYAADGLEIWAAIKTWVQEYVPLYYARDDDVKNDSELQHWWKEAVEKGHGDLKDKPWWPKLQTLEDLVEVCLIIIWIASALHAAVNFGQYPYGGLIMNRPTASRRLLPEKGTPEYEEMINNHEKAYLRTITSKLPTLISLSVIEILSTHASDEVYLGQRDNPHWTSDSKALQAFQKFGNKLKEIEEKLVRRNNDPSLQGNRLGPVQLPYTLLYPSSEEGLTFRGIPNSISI
Procedure: (§1) Activities of various LOXs were monitored by measuring the increase in absorbance at 234 nm due to the formation of hydroperoxide (ε234=25,000 M^−1 cm^−1) at 25° C. as described before (Smith et al, J. Biol. Chem. 247 (1972) 1038-1047). One unit is defined as the amount of LOXs that can produce one nanomole of conjugated diene per min. The reaction mixture (500 μl) included reticulocyte LOX (2 units/ml) in 50 mM phosphate buffer (pH 7.4), porcine leukocyte LOX (1 unit/ml) in 100 mM phosphate buffer (pH 7.5) containing 5 mM EDTA and 0.03% Tween 20, or soybean LOX-1 (2.5 units/ml) in 50 mM borax buffer (pH 9.0) at 25° C. The reactions were started by including each substrate (100 μM) into the above reaction mixture.
(§2) Reticulocyte LOX (2 units/ml), leukocyte LOX (1 units/ml) or soybean LOX-1 (2.5 units/ml) was incubated with each arachidonoyl derivative substrate of various concentrations as described above. The values of kinetic parameters were obtained according to Lineweaver Burke plot analyses as described before (Barroso et al, J. Chromatogr. B. Analyt. Technol. Biomed. Life. Sci. 814 (2005) 21-28).

[2] = target: T2, Rabbit reticulocyte 15-lipoxygenase (reticulocyte LOX) (Oryctolagus cuniculus, UniProt P12530); experiment: Oxygenation of arachidonoyl lysophospholipids by reticulocyte LOX; type: biochemical; conditions: reticulocyte LOX 2 units/ml, 50 mM phosphate buffer pH 7.4
T2 construct: purchased Biomol Inc. (Plymouth Meeting, Pa., USA)
T2 sequence (P12530 1-663): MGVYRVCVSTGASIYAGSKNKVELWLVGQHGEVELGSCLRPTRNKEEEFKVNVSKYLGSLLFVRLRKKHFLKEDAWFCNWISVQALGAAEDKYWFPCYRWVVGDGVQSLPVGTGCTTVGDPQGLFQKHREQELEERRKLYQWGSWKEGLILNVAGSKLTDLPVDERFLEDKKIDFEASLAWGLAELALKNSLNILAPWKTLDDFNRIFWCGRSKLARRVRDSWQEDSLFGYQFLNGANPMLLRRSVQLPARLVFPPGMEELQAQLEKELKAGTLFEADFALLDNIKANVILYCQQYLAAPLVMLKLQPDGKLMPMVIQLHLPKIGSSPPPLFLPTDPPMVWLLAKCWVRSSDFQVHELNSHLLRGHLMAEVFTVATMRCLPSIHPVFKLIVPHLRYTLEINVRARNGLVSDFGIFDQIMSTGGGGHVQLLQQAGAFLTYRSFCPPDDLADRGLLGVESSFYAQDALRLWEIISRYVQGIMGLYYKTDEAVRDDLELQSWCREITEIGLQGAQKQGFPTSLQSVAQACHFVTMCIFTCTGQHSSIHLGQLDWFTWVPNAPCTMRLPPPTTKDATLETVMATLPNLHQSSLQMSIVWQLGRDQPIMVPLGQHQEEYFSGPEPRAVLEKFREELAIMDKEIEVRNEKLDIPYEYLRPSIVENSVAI
Procedure: as §1, §2
It is noteworthy that the efficacy of arachidonoyl-lysoPC as a substrate for leukocyte LOX was approximately 10-fold greater than that of arachidonic acid. In an additional study, the oxygenation of arachidonoyl-lysoPC or arachidonoyl-lysoPA by reticulocyte LOX was examined. […]

[3] = target: T3, Leukocyte 12-lipoxygenase (leukocyte LOX) (Sus scrofa, UniProt P16469); experiment: Kinetics of oxygenation of arachidonic acid or arachidonoyl-lysophospholipids by leukocyte LOX; type: biochemical, porcine; conditions: leukocyte LOX 1 unit/ml, 100 mM phosphate buffer pH 7.5, 5 mM EDTA; for Vm: 0.03% Tween 20
T3 construct: purchased Cayman Chemical Co. (Ann Arbor, Mich., USA)
T3 sequence (P16469 1-663): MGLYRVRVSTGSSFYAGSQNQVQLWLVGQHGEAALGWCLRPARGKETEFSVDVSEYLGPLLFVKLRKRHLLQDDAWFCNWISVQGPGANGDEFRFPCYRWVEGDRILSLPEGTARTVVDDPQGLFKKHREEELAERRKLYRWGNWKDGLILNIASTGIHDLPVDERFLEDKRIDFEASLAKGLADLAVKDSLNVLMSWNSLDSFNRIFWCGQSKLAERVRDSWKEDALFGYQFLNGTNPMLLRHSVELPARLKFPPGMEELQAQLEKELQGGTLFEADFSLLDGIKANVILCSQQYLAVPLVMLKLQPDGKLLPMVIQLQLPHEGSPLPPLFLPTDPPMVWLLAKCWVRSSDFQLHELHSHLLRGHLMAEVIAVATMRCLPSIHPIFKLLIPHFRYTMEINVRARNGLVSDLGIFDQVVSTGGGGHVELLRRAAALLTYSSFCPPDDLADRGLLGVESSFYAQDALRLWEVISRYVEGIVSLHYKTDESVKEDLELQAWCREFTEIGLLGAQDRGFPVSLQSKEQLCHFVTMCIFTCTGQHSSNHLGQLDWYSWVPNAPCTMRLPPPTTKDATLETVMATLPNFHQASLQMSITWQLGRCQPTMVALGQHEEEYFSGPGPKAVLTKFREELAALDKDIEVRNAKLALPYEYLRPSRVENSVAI
Procedure: as §1, §2

[4] = target: T4, Reticulocyte LOX (Oryctolagus cuniculus, UniProt P12530); experiment: Kinetics of oxygenation of linoleoylated substrates by reticulocyte LOX; type: biochemical, Rabbit; conditions: reticulocyte LOX 8.2 units/ml, 50 mM phosphate buffer pH 7.4, 25° C.
T4 construct: purchased Biomol Inc. (Plymouth Meeting, Pa., USA)
T4 sequence (P12530 1-663): T2 sequence (P12530 1-663)
Text: Data were expressed as means ±S.D. of results from at least three independent experiments.

[5] = target: T5, lipoxygenase (Glycine max, UniProt P08170); conditions: Perez-Gilabert et al. 1998; cited from earlier work
T5 sequence (P08170 1-839): T1 sequence (P08170 1-839)

[6] = target: T1, soybean LOX-1; experiment: Kinetics of oxygenation of docosahexaenoic acid derivatives by soybean LOX-1; type: biochemical; conditions: soybean LOX-1 2.5 units/ml, 50 mM borax buffer pH 9.0, 25° C.
Procedure: (§3) Soybean LOX-1 (2.5 units/ml) was incubated with docosahexaenoyl-lysoPC, didocosahexaenoyl-lysoPC or docosahexaenoic acid of various concentrations in 500 μl of 50 mM borax buffer (pH 9.0) at 25° C. Values were expressed as means ±S.D. of results from at least three independent experiments.

[7] = target: T6, Porcine leukocyte LOX (Sus scrofa, UniProt P16469); experiment: Kinetics of oxygenation of docosahexaenoyl-lysoPC or docosahexaenoic acid by leukocyte LOX; type: biochemical; conditions: porcine leukocyte LOX 2 units/ml, 100 mM phosphate buffer pH 7.4, 5 mM EDTA
T6 construct: purchased Cayman Chemical Co. (Ann Arbor, Mich., USA)
T6 sequence (P16469 1-663): T3 sequence (P16469 1-663)
Procedure: Porcine leukocyte LOX (2 units/ml) was incubated with each substrate docosahexaenoyl-lysoPC or docosahexaenoic acid of various concentrations in 500 μl of 100 mM phosphate buffer (pH 7.4) containing 5 mM EDTA and 0.03% Tween 20 at 25° C.

[8] = substrate: CC/C=C\C/C=C\C/C=C\C/C=C\C/C=C\C/C=C\CCC(=O)O; experiment: Kinetics of oxygenation of docosahexaenoic acid derivatives by soybean LOX-1; type: biochemical; conditions: other: soybean LOX-1 2.5 units/ml, 50 mM borax buffer pH 9.0, 25° C.
Procedure: as §3

[9] = substrate: CCCCC/C=C\C/C=C\C/C=C\C/C=C\CCCC(=O)O; experiment: Kinetics of oxygenation of arachidonic acid or arachidonoyl-lysophospholipids by soybean LOX-1; type: biochemical; conditions: other: soybean LOX-1 2.5 units/ml, 50 mM borax buffer pH 9.0, 25° C.
Procedure: as §1, §2

Km ([1]; 50 mM borax buffer pH 9.0, 25° C.): 15.4 µM | Vm [1]: 147.8 ± 2.3 units/μg | Vm ([1]; listed as arachidonoyl-lysoPA): 147.8 units/μg | Vm [3]: 33.5 ± 2.9 units/mg | Km ([3]; 0.03% Tween 20, 25° C.): 8.6 µM | Vm ([3]; listed as arachidonoyl-lysoPA): 33.5 units/mg
Molecule: CCCCC/C=C\C/C=C\C/C=C\C/C=C\CCCC(=O)OCC(O)COP(=O)(O)O (stereo not shown) [Arachidonoyl-lysoPA, 1-arachidonoyl lysophosphatidic acid]
Vm/Km value in reticulocyte LOX-catalyzed oxygenation compared with arachidonic acid [2]: somewhat greater than that of arachidonic acid

Vm [4]: 646 ± 20 units/mg | Km ([4]; substrate 3-100 μM): 71.7 ± 6.9 µM
Molecule: CCCCC/C=C\C/C=C\CCCCCCCC(=O)OC[C@H](COP(=O)([O-])OCC[N+](C)(C)C)OC(=O)CCCCCCC/C=C\C/C=C\CCCCC [Dilinoleoyl-PC, Dilinoleoyl phosphatidylcholine]
lipoxygenation rate relative to linoleic acid (times slower) [5]: about 4 times

Molecule: CC/C=C\C/C=C\C/C=C\C/C=C\C/C=C\C/C=C\CCC(=O)OCC(O)COP(=O)([O-])OCC[N+](C)(C)C (stereo not shown) [Docosahexaenoyl-lysoPC, 1-docosahexenoyl lysophosphatidylcholine]
Km [6]: 2200 ± 600 nM | Vm [6]: 104.2 ± 5.2 units/μg | Vm ([7]; 0.03% Tween 20): 77.2 ± 2.8 units/mg | Km ([7]; 0.03% Tween 20, 25° C.): 3.4 ± 1.8 µM

B1: soybean LOX-1 (Glycine max) (protein)
chain: T1 sequence (P08170 1-839)
notes: purchased Sigma-Aldrich Corp (St. Louis, Mo., USA) lipoxidase Type I-B
Km [8]: 16.8 ± 1.4 µM | Vmax [8]: 178000 nmol/min/mg | Km [9]: 12.4 µM | Vmax [9]: 92200 nmol/min/mg | Vmax/Km [9]: 7.4e+06 µL/min/mg
